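How tested: cells in 96-well plates exposed to compound for 48 hours at five concentrations. GI50: concentration for 50% inhibition of growth.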 Active and inactive are the calls of the source. No stated cut-off is given here; in the data, active = GI50 up to about 1.1 µM and inactive = higher.
How the values were obtained:
Assay in all cases: NCI tumour cell line growth inhibition, 48 h
MCF7 = system: MCF7
K562 = system: K562
SF-539 = system: SF-539
OVCAR-3 = system: OVCAR-3
UACC-257 = system: UACC-257
BT-549 = system: BT-549
NCI-H23 = system: NCI-H23
RPMI-8226 = system: RPMI-8226
NCI-H460 = system: NCI-H460
OVCAR-4 = system: OVCAR-4
DU-145 = system: DU-145
NCI-H522 = system: NCI-H522
A549 = system: A549
SW-620 = system: SW-620
COLO 205 = system: COLO 205
OVCAR-8 = system: OVCAR-8
HCT-15 = system: HCT-15
SK-MEL-2 = system: SK-MEL-2
MOLT-4 = system: MOLT-4
HCC 2998 = system: HCC 2998

SMILES | GI50 (MCF7) | GI50 (K562) | GI50 (SF-539) | GI50 (OVCAR-3) | GI50 (UACC-257) | GI50 (BT-549) | GI50 (NCI-H23) | GI50 (RPMI-8226) | GI50 (NCI-H460) | GI50 (OVCAR-4) | GI50 (DU-145) | GI50 (NCI-H522) | GI50 (A549) | GI50 (SW-620) | GI50 (COLO 205) | GI50 (OVCAR-8) | GI50 (HCT-15) [µM] | GI50 (SK-MEL-2) | GI50 (MOLT-4) | GI50 (HCC 2998)
COc1cccc(CSCC(=O)O)c1 | > 100 µM (inactive) | > 100 µM (inactive) | > 100 µM (inactive) | > 100 µM (inactive) | > 100 µM (inactive) | > 100 µM (inactive) | > 100 µM (inactive) | > 100 µM (inactive) | > 100 µM (inactive) | > 100 µM (inactive) | > 100 µM (inactive) | > 100 µM (inactive) | > 100 µM (inactive) | > 100 µM (inactive) | > 100 µM (inactive) | > 100 µM (inactive) | > 100 | > 100 µM (inactive) |  | 
CC(Cc1ccc(O)cc1)NCC(O)c1ccc(O)c(O)c1 (centres undefined) | > 100 µM (inactive) | > 100 µM (inactive) | > 100 µM (inactive) | 81.7 µM (inactive) | > 100 µM (inactive) | > 100 µM (inactive) | > 100 µM (inactive) | > 100 µM (inactive) | > 100 µM (inactive) | > 100 µM (inactive) | > 100 µM (inactive) | > 100 µM (inactive) | > 100 µM (inactive) | > 100 µM (inactive) |  | > 100 µM (inactive) | > 100 | > 100 µM (inactive) | 73.5 µM (inactive) | 
CCC(C(=O)C(=O)OC)P1(=O)OC(C)(C)CN1C(C)(C)C (centres undefined) | 26.9 µM (inactive) | > 100 µM (inactive) | > 100 µM (inactive) | > 100 µM (inactive) | > 100 µM (inactive) | > 100 µM (inactive) | > 100 µM (inactive) | > 100 µM (inactive) | > 100 µM (inactive) | > 100 µM (inactive) | > 100 µM (inactive) |  | > 100 µM (inactive) | > 100 µM (inactive) | > 100 µM (inactive) | > 100 µM (inactive) | > 100 | > 100 µM (inactive) | > 100 µM (inactive) | > 100 µM (inactive)
COc1ccc(C2SC(=N)Nc3c2c(C)nn3C(=O)Cc2ccccc2)cc1 (centres undefined) | > 100 µM (inactive) | > 100 µM (inactive) | > 100 µM (inactive) |  | > 100 µM (inactive) | > 100 µM (inactive) | > 100 µM (inactive) | > 100 µM (inactive) | > 100 µM (inactive) |  | > 100 µM (inactive) | > 100 µM (inactive) | > 100 µM (inactive) | > 100 µM (inactive) | > 100 µM (inactive) | > 100 µM (inactive) | > 100 |  | > 100 µM (inactive) | > 100 µM (inactive)
Cc1ccc(C2(c3ccc(C)c(O)c3C)CCN(C)CC2)c(C)c1O |  | 84.7 µM (inactive) |  | 54 µM (inactive) | 15.8 µM (inactive) | > 100 µM (inactive) | > 100 µM (inactive) | > 100 µM (inactive) | 15.7 µM (inactive) | > 100 µM (inactive) | > 100 µM (inactive) | > 100 µM (inactive) | > 100 µM (inactive) | 88.1 µM (inactive) |  | > 100 µM (inactive) | > 100 | 26.9 µM (inactive) | > 100 µM (inactive) | 
C=CCN(c1cc(OCc2ccccc2)c2c(c1)c(C)cn2S(=O)(=O)c1ccccc1)S(C)(=O)=O |  | > 100 µM (inactive) | > 100 µM (inactive) | > 100 µM (inactive) | > 100 µM (inactive) | > 100 µM (inactive) | > 100 µM (inactive) | > 100 µM (inactive) | > 100 µM (inactive) | > 100 µM (inactive) | > 100 µM (inactive) | > 100 µM (inactive) | > 100 µM (inactive) | > 100 µM (inactive) | > 100 µM (inactive) | > 100 µM (inactive) | > 100 | > 100 µM (inactive) | > 100 µM (inactive) | > 100 µM (inactive)
CC1=N[C@](C)(C2CC3C=CC2C3=O)COC1=O (some centres undefined) | > 100 µM (inactive) | > 100 µM (inactive) | > 100 µM (inactive) | > 100 µM (inactive) | > 100 µM (inactive) | > 100 µM (inactive) | > 100 µM (inactive) |  | > 100 µM (inactive) | > 100 µM (inactive) | > 100 µM (inactive) | > 100 µM (inactive) | > 100 µM (inactive) | > 100 µM (inactive) | > 100 µM (inactive) | > 100 µM (inactive) |  |  | > 100 µM (inactive) | > 100 µM (inactive)
CC(=O)Nc1ccc(NC(=O)CC(=O)Nc2ccc(NC(C)=O)cc2)cc1 | > 100 µM (inactive) | > 100 µM (inactive) | > 100 µM (inactive) | > 100 µM (inactive) | > 100 µM (inactive) | > 100 µM (inactive) | > 100 µM (inactive) | > 100 µM (inactive) | > 100 µM (inactive) | > 100 µM (inactive) | > 100 µM (inactive) | > 100 µM (inactive) | > 100 µM (inactive) | > 100 µM (inactive) | > 100 µM (inactive) | > 100 µM (inactive) | 25.8 |  | > 100 µM (inactive) | 19.4 µM (inactive)
O=C(NC(CCCCN1C(=O)c2ccccc2C1=O)P(=O)(Oc1ccccc1)Oc1ccccc1)OCc1ccccc1 (centres undefined) | > 100 µM (inactive) |  | > 100 µM (inactive) | > 100 µM (inactive) | > 100 µM (inactive) | > 100 µM (inactive) | 7.33 µM (inactive) | > 100 µM (inactive) | > 100 µM (inactive) |  | > 100 µM (inactive) | 75 µM (inactive) | > 100 µM (inactive) | > 100 µM (inactive) | > 100 µM (inactive) | > 100 µM (inactive) | > 10 | > 100 µM (inactive) |  | > 100 µM (inactive)
CCOC(=O)C(O)(C(=O)OCC)c1cc(C(C)(C)C)c(O)c(C(C)(C)C)c1 | 40.4 µM (inactive) | 33.6 µM (inactive) | 28.4 µM (inactive) | 76.6 µM (inactive) | 34.4 µM (inactive) | 39.2 µM (inactive) | 43.6 µM (inactive) | 26.1 µM (inactive) |  | > 100 µM (inactive) | 92 µM (inactive) | 36.9 µM (inactive) | 54.3 µM (inactive) | 37 µM (inactive) | 36.1 µM (inactive) | 15.5 µM (inactive) | 42 | 27.7 µM (inactive) | 25.8 µM (inactive) | 
Cc1nc2[nH]ccn2c(=O)c1CCCl | 68.1 µM (inactive) | 22.9 µM (inactive) | 17.1 µM (inactive) | 25.2 µM (inactive) | 94.2 µM (inactive) | 25.2 µM (inactive) | 18.3 µM (inactive) | 28 µM (inactive) | 20.6 µM (inactive) | 20.1 µM (inactive) | 23.6 µM (inactive) | 20.7 µM (inactive) | 45.5 µM (inactive) | 17.3 µM (inactive) | 38.7 µM (inactive) | 26.7 µM (inactive) | 39.7 |  | 14.8 µM (inactive) | 19.2 µM (inactive)
COc1cc2c(cc1O)C1Cc3ccc(OC)c(O)c3C[N+]1(C)CC2 (centres undefined) | > 100 µM (inactive) | 58.3 µM (inactive) | > 100 µM (inactive) |  |  | > 100 µM (inactive) | > 100 µM (inactive) | > 100 µM (inactive) | > 100 µM (inactive) | > 100 µM (inactive) | > 100 µM (inactive) |  | > 100 µM (inactive) | > 100 µM (inactive) | > 100 µM (inactive) | > 100 µM (inactive) | > 100 | > 100 µM (inactive) | > 100 µM (inactive) | > 100 µM (inactive)
C[C@@H]1CC[C@@]2(C)C(C(=O)O)=CCCC2[C@@]1(C)CC(=O)c1ccoc1 (some centres undefined) | > 25 µM (inactive) |  | > 25 µM (inactive) | > 25 µM (inactive) | > 25 µM (inactive) | > 25 µM (inactive) | > 25 µM (inactive) | > 25 µM (inactive) | > 25 µM (inactive) | > 25 µM (inactive) | > 25 µM (inactive) | > 25 µM (inactive) | > 25 µM (inactive) | > 25 µM (inactive) | > 25 µM (inactive) | > 25 µM (inactive) | > 25 | > 25 µM (inactive) | > 25 µM (inactive) | 
Oc1ccc(Cl)cc1Sc1cc(Cl)ccc1O [FENTICLOR] | 17.3 µM (inactive) | 8.34 µM (inactive) | 17.7 µM (inactive) | 3.75 µM (inactive) | 6.65 µM (inactive) | 12.9 µM (inactive) | 5.04 µM (inactive) | 3.32 µM (inactive) | 10.7 µM (inactive) | 10 µM (inactive) | 14.2 µM (inactive) | 3.1 µM (inactive) | 26.8 µM (inactive) | 16.7 µM (inactive) | 20.7 µM (inactive) | 15 µM (inactive) | 8.65 | 10.5 µM (inactive) | 7.53 µM (inactive) | 
CC1=C2C(=O)O[C@@H](c3ccoc3)[C@]2(C)CCC1=O [FRAXINELLONONE] | > 100 µM (inactive) | > 100 µM (inactive) | > 100 µM (inactive) | > 100 µM (inactive) | > 100 µM (inactive) | > 100 µM (inactive) | > 100 µM (inactive) | > 100 µM (inactive) | > 100 µM (inactive) |  | > 100 µM (inactive) |  | > 100 µM (inactive) | > 100 µM (inactive) | > 100 µM (inactive) | > 100 µM (inactive) | > 100 | > 100 µM (inactive) | > 100 µM (inactive) | > 100 µM (inactive)
